pEC50: −log10 of the molar value. Like-named read-outs stand apart in the source and are kept apart here.
Columns and labels:
[1] = biological target: T1, Hsp90 in C. albicans (SC5314) lysate (Candida albicans, UniProt P46598); assay: biochemical; assay type: binding; conditions: for FP signal: raw
T1 construct: endogenous in cells; host or cells: C. albicans SC5314 whole-cell lysate

Hsp90 in HEPG2 lysate = conditions: for FP signal: raw
[2] = SC5314 lysate, 0.457 nM compound
[3] = SC5314 lysate, 1.372 nM compound
[4] = SC5314 lysate, 4.115 nM compound
[5] = SC5314 lysate, 12.346 nM compound
[6] = SC5314 lysate, 37.037 nM compound
[7] = SC5314 lysate, 111.111 nM compound
[8] = SC5314 lysate, 333.333 nM compound
[9] = SC5314 lysate, 1000 nM compound
[10] = SC5314 lysate, 3000 nM compound

T1 sequence (P46598 whole entry): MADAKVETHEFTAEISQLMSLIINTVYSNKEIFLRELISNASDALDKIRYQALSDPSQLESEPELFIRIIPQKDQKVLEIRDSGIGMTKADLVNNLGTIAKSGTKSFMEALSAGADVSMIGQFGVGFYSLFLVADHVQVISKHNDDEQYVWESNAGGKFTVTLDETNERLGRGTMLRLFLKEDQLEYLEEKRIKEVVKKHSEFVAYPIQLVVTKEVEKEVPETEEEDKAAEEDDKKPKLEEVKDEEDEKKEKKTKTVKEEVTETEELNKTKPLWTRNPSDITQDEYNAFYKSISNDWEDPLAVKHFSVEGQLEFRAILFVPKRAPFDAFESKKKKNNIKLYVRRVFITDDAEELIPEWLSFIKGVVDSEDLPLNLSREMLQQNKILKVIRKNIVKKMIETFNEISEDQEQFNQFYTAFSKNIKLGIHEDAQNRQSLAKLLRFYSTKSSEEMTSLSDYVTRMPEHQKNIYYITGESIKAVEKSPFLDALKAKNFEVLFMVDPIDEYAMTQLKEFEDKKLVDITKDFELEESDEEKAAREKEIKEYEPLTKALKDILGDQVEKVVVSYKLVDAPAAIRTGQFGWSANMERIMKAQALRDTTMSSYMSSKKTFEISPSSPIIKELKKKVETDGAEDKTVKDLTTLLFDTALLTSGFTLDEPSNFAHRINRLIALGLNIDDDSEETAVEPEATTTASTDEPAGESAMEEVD

Ratio re. GdA ([1]; EC50 relative to GdA, SC5314 lysate): 57.1252 | FP signal (raw) ([1]; SC5314 lysate, 0.457 nM): 202 | FP signal relative to 0 nM [1, 2]: 0.9806 | FP signal [1, 2]: 202 | FP signal (raw) ([1]; SC5314 lysate, 1.372 nM): 199 | FP signal relative to 0 nM [1, 3]: 0.966 | FP signal [1, 3]: 199 | FP signal (raw) ([1]; SC5314 lysate, 4.115 nM): 200 | FP signal relative to 0 nM [1, 4]: 0.9709 | FP signal [1, 4]: 200 | FP signal (raw) ([1]; SC5314 lysate, 12.346 nM): 199 | FP signal relative to 0 nM [1, 5]: 0.966 | FP signal [1, 5]: 199 | FP signal (raw) ([1]; SC5314 lysate, 37.037 nM): 200 | FP signal relative to 0 nM [1, 6]: 0.9709 | FP signal [1, 6]: 200 | FP signal (raw) ([1]; SC5314 lysate, 111.111 nM): 197 | FP signal relative to 0 nM [1, 7]: 0.9563 | FP signal [1, 7]: 197 | FP signal (raw) ([1]; SC5314 lysate, 333.333 nM): 171 | FP signal relative to 0 nM [1, 8]: 0.8301 | FP signal [1, 8]: 171 | FP signal (raw) ([1]; SC5314 lysate, 1000 nM): 108 | FP signal relative to 0 nM [1, 9]: 0.5243 | FP signal [1, 9]: 108 | FP signal (raw) ([1]; SC5314 lysate, 3000 nM): 45 | FP signal relative to 0 nM [1, 10]: 0.2184 | FP signal [1, 10]: 45 | HepG2/SC5314 ([1]; ratio of GdA-normalized EC50s, human over fungal lysate): 1.973 | HepG2/SC5314 ([1]; ratio of GdA-relative EC50 ratios, HepG2 over SC5314): 1.973 | pEC50 (Hsp90 in HEPG2 lysate; HepG2 lysate, oxime panel experiment 220817): 5.60
SMILES: Cc1ccc(CON=C2C=CC=CC3OC3CC(C)OC(=O)c3c(O)cc(O)c(Cl)c3C2)cc1 (mixture of isomers) [compound 218]
Ratio rel. GdA (HepG2) (Hsp90 in HEPG2 lysate; EC50 / EC50 of GdA in HepG2 lysate): 112.714 | Ratio rel. GdA (HepG2) (Hsp90 in HEPG2 lysate; EC50 relative to GdA, HEPG2 lysate): 112.714 | FP signal, Fxn Control (Hsp90 in HEPG2 lysate; HEPG2 lysate, log concentration 0.137354 (1.372 nM)): 0.9811 | FP signal, Fxn Control (Hsp90 in HEPG2 lysate; HEPG2 lysate, log concentration 0.61437 (4.115 nM)): 0.9953 | FP signal, Fxn Control (Hsp90 in HEPG2 lysate; HEPG2 lysate, log concentration 1.09153 (12.346 nM)): 0.9858 | FP signal, Fxn Control (Hsp90 in HEPG2 lysate; HEPG2 lysate, log concentration 1.56864 (37.037 nM)): 0.9906 | FP signal, Fxn Control (Hsp90 in HEPG2 lysate; HEPG2 lysate, log concentration 2.04576 (111.111 nM)): 0.9811 | FP signal, Fxn Control (Hsp90 in HEPG2 lysate; HEPG2 lysate, log concentration 2.52288 (333.333 nM)): 0.9575 | FP signal, Fxn Control (Hsp90 in HEPG2 lysate; HEPG2 lysate, log concentration 3 (1000 nM)): 0.8066 | FP signal, Fxn Control (Hsp90 in HEPG2 lysate; HEPG2 lysate, log concentration 3.47712 (3000 nM)): 0.4009 | FP signal, Fxn Control (Hsp90 in HEPG2 lysate; HEPG2 lysate, log concentration -0.340084 (0.457 nM)): 0.9906 | FP signal (raw) (Hsp90 in HEPG2 lysate; HepG2 lysate, 0.457 nM): 210 | FP signal (Hsp90 in HEPG2 lysate; HepG2 lysate, 0.457 nM compound): 210 | FP signal (raw) (Hsp90 in HEPG2 lysate; HepG2 lysate, 1.372 nM): 208 | FP signal (Hsp90 in HEPG2 lysate; HepG2 lysate, 1.372 nM compound): 208 | FP signal (raw) (Hsp90 in HEPG2 lysate; HepG2 lysate, 4.115 nM): 211 | FP signal (Hsp90 in HEPG2 lysate; HepG2 lysate, 4.115 nM compound): 211 | FP signal (raw) (Hsp90 in HEPG2 lysate; HepG2 lysate, 12.346 nM): 209 | FP signal (Hsp90 in HEPG2 lysate; HepG2 lysate, 12.346 nM compound): 209 | FP signal (raw) (Hsp90 in HEPG2 lysate; HepG2 lysate, 37.037 nM): 210 | FP signal (Hsp90 in HEPG2 lysate; HepG2 lysate, 37.037 nM compound): 210 | FP signal (raw) (Hsp90 in HEPG2 lysate; HepG2 lysate, 111.111 nM): 208 | FP signal (Hsp90 in HEPG2 lysate; HepG2 lysate, 111.111 nM compound): 208 | FP signal (raw) (Hsp90 in HEPG2 lysate; HepG2 lysate, 333.333 nM): 203 | FP signal (Hsp90 in HEPG2 lysate; HepG2 lysate, 333.333 nM compound): 203 | FP signal (raw) (Hsp90 in HEPG2 lysate; HepG2 lysate, 1000 nM): 171 | FP signal (Hsp90 in HEPG2 lysate; HepG2 lysate, 1000 nM compound): 171 | FP signal (raw) (Hsp90 in HEPG2 lysate; HepG2 lysate, 3000 nM): 85 | FP signal (Hsp90 in HEPG2 lysate; HepG2 lysate, 3000 nM compound): 85

— paper PMC6345968, “Structural basis for species-selective targeting of Hsp90 in a pathogenic fungus” (Nature Communications, 2019)
